Reference: US20240116985A1, “STAPLED PEPTIDES AND METHODS THEREOF” (priority 2020, published 2024)

Molecular target: T1, full-length beta-Catenin (Uniprot ID P35222) (Homo sapiens, UniProt P35222)
T1 construct: 10 nM full-length beta-Catenin (Uniprot ID P35222)
T1 sequence (P35222 1-781): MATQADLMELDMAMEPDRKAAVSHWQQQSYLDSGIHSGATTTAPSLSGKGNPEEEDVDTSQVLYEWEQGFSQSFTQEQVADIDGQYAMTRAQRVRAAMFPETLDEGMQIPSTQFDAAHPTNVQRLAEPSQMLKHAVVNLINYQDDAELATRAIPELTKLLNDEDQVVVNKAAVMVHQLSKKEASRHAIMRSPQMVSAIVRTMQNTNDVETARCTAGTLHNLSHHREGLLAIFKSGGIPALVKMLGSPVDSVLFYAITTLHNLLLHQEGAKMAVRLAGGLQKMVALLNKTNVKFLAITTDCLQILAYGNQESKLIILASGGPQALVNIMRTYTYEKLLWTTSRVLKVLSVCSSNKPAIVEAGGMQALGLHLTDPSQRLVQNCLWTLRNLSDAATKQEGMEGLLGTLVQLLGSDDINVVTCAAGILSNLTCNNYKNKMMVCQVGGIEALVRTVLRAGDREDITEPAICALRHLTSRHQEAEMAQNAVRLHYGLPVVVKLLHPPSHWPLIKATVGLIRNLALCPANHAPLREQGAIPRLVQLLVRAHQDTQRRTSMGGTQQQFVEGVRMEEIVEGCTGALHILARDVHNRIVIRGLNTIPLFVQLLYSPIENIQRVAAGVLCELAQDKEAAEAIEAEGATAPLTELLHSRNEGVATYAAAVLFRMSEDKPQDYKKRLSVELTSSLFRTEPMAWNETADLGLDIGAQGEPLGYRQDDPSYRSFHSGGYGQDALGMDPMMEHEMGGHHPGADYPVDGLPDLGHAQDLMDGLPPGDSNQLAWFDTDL
Assay: Fluorescence polarization IC50 (beta-catenin / 5FAM-TCF4 10-53 competition)
Type: binding
Conditions: fluorescence polarization; read-out: beta-Catenin FP IC50

| IC50 [nM] | Compound |
| --- | --- |
| 1520 | CC(=O)N1CCC[C@]12CC=CCCCC1(CCCC=CCCCOC(=O)N3CC[C@@](C(=O)N[C@@H](Cc4ccsc4)C(=O)N[C@@H](Cc4c[nH]c5ccccc45)C(=O)N[C@@H](CCC(N)=O)C(N)=O)(C3)NC(=O)[C@H](CC(N)=O)NC(=O)[C@H](Cc3ccccc3)NC(=O)[C@H](C)NC(=O)[C@H](C)NC(=O)[C@H]([C@@H](C)O)NC(=O)[C@H](CC(N)=O)NC1=O)NC(=O)[C@H](CC(C)(C)C)NC(=O)[C@H](CC(=O)O)NC2=O (stereo partly drawn) [I-1877, Ac-PL3-Asp-Npg-B5-Asn-Thr-Ala-Ala-Phe-Asn-PyrS2-3Thi-Trp-Gln-NH2] |
| 458 | CC(=O)N1CCC[C@]12CC=CCCCC1(CCCC=CCCCOC(=O)N3CC[C@@](C(=O)N[C@@H](Cc4ccsc4)C(=O)N[C@@H](Cc4csc5ccccc45)C(=O)N[C@H](C(N)=O)C(C)C)(C3)NC(=O)[C@H](CC(N)=O)NC(=O)[C@H](Cc3ccccc3)NC(=O)[C@H](C)NC(=O)[C@H](C)NC(=O)[C@H]([C@@H](C)O)NC(=O)[C@H](CC(N)=O)NC1=O)NC(=O)[C@H](CC(C)(C)C)NC(=O)[C@H](CC(=O)O)NC2=O (stereo partly drawn) [I-1878, Ac-PL3-Asp-Npg-B5-Asn-Thr-Ala-Ala-Phe-Asn-PyrS2-3Thi-BztA-Val-NH2] |
| 397 | CC(=O)N1CCC[C@]12CC=CCCCC1(CCCC=CCCCOC(=O)N3CC[C@@](C(=O)N[C@@H](Cc4ccsc4)C(=O)N[C@@H](Cc4csc5ccccc45)C(=O)N[C@@H](CCC(N)=O)C(N)=O)(C3)NC(=O)[C@H](CCCNC(=N)N)NC(=O)[C@H](Cc3ccccc3)NC(=O)[C@H](C)NC(=O)[C@H](C)NC(=O)[C@H]([C@@H](C)O)NC(=O)[C@H](CC(N)=O)NC1=O)NC(=O)[C@H](CC(C)(C)C)NC(=O)[C@H](CC(=O)O)NC2=O (stereo partly drawn) [I-1882, Ac-PL3-Asp-Npg-B5-Asn-Thr-Ala-Ala-Phe-Arg-PyrS2-3Thi-BztA-Gln-NH2] |
| 249 | CC(=O)N1CCC[C@]12CC=CCCCC1(CCCC=CCCCOC(=O)N3CC[C@@](C(=O)N[C@@H](Cc4ccsc4)C(=O)N[C@@H](Cc4csc5ccccc45)C(=O)N[C@@H](CCC(N)=O)C(N)=O)(C3)NC(=O)[C@H](CC(N)=O)NC(=O)[C@H](Cc3ccccc3)NC(=O)[C@H](C)NC(=O)[C@H](C)NC(=O)[C@H]([C@@H](C)O)NC(=O)[C@H](CC(N)=O)NC1=O)NC(=O)[C@H](CC1CCCCC1)NC(=O)[C@H](CC(=O)O)NC2=O (stereo partly drawn) [I-1884, Ac-PL3-Asp-Cha-B5-Asn-Thr-Ala-Ala-Phe-Asn-PyrS2-3Thi-BztA-Gln-NH2] |
| 255 | CC(=O)N1CCC[C@]12CC=CCCCC1(CCCC=CCCCOC(=O)N3CC[C@@](C(=O)N[C@@H](Cc4ccsc4)C(=O)N[C@@H](Cc4csc5ccccc45)C(=O)N[C@@H](CCC(N)=O)C(N)=O)(C3)NC(=O)[C@H](CC(N)=O)NC(=O)[C@H](Cc3ccccc3)NC(=O)[C@H](C)NC(=O)[C@H](C)NC(=O)[C@H]([C@@H](C)O)NC(=O)[C@H](CC(N)=O)NC1=O)NC(=O)[C@H](CC1CCCCC1)NC(=O)[C@H](CC(=O)O)NC2=O (stereo partly drawn) [I-1885, Ac-PL3-Asp-Cha-B5-Asn-Thr-Ala-Ala-Phe-Asn-PyrS2-3Thi-BztA-Gln-NH2] |
| 75 | CC(=O)N1CCC[C@]12CC=CCCCC1(CCCC=CCCCOC(=O)N3CC[C@@](C(=O)N[C@@H](CC4CCCC4)C(=O)N[C@@H](Cc4csc5ccccc45)C(=O)N[C@@H](CO)C(N)=O)(C3)NC(=O)[C@H](CC(C)C)NC(=O)[C@H](Cc3ccccc3)NC(=O)[C@H](C)NC(=O)[C@H](C)NC(=O)[C@H](Cc3cccc(C(=O)O)c3)NC(=O)[C@H](CC(=O)O)NC1=O)NC(=O)[C@H](CC(C)(C)C)NC(=O)[C@H](CC(=O)O)NC2=O (stereo partly drawn) [I-1896, Ac-PL3-Asp-Npg-B5-Asp-3COOHF-Ala-Ala-Phe-Leu-PyrS2-CypA-BztA-Ser-NH2] |

Further lines, the compound ahead of its results:

| Compound | IC50 [nM] |
| --- | --- |
| CC(=O)N1CCC[C@]12CC=CCCCC1(CCCC=CCCCOC(=O)N3CC[C@@](C(=O)N[C@@H](Cc4ccsc4)C(=O)N[C@@H](Cc4c[nH]c5ccccc45)C(=O)N[C@@H](CCC(N)=O)C(N)=O)(C3)NC(=O)[C@H](CC(N)=O)NC(=O)[C@H](Cc3ccccc3)NC(=O)[C@H](C)NC(=O)[C@H](C)NC(=O)[C@H]([C@@H](C)O)NC(=O)[C@H](CC(N)=O)NC1=O)NC(=O)[C@H](CC(C)(C)C)NC(=O)[C@H](CC(=O)O)NC2=O (stereo partly drawn) [I-1876, Ac-PL3-Asp-Npg-B5-Asn-Thr-Ala-Ala-Phe-Asn-PyrS2-3Thi-Trp-Gln-NH2] | 1340 |
| CC(=O)N1CCC[C@]12CC=CCCCC1(CCCC=CCCCOC(=O)N3CC[C@@](C(=O)N[C@@H](Cc4ccsc4)C(=O)N[C@@H](Cc4csc5ccccc45)C(=O)N[C@H](C(N)=O)C(C)C)(C3)NC(=O)[C@H](CC(N)=O)NC(=O)[C@H](Cc3ccccc3)NC(=O)[C@H](C)NC(=O)[C@H](C)NC(=O)[C@H]([C@@H](C)O)NC(=O)[C@H](CC(N)=O)NC1=O)NC(=O)[C@H](CC(C)(C)C)NC(=O)[C@H](CC(=O)O)NC2=O (stereo partly drawn) [I-1879, Ac-PL3-Asp-Npg-B5-Asn-Thr-Ala-Ala-Phe-Asn-PyrS2-3Thi-BztA-Val-NH2] | 567 |
| CC(=O)N1CCC[C@]12CC=CCCCC1(CCCC=CCCCOC(=O)N3CC[C@@](C(=O)N[C@@H](Cc4ccsc4)C(=O)N[C@@H](Cc4csc5ccccc45)C(=O)N[C@@H](CC(C)C)C(N)=O)(C3)NC(=O)[C@H](CC(N)=O)NC(=O)[C@H](Cc3ccccc3)NC(=O)[C@H](C)NC(=O)[C@H](C)NC(=O)[C@H]([C@@H](C)O)NC(=O)[C@H](CC(N)=O)NC1=O)NC(=O)[C@H](CC(C)(C)C)NC(=O)[C@H](CC(=O)O)NC2=O (stereo partly drawn) [I-1880, Ac-PL3-Asp-Npg-B5-Asn-Thr-Ala-Ala-Phe-Asn-PyrS2-3Thi-BztA-Leu-NH2] | 868 |
| CC(=O)N1CCC[C@]12CC=CCCCC1(CCCC=CCCCOC(=O)N3CC[C@@](C(=O)N[C@@H](Cc4ccsc4)C(=O)N[C@@H](Cc4csc5ccccc45)C(=O)N[C@@H](CC(C)C)C(N)=O)(C3)NC(=O)[C@H](CC(N)=O)NC(=O)[C@H](Cc3ccccc3)NC(=O)[C@H](C)NC(=O)[C@H](C)NC(=O)[C@H]([C@@H](C)O)NC(=O)[C@H](CC(N)=O)NC1=O)NC(=O)[C@H](CC(C)(C)C)NC(=O)[C@H](CC(=O)O)NC2=O (stereo partly drawn) [I-1881, Ac-PL3-Asp-Npg-B5-Asn-Thr-Ala-Ala-Phe-Asn-PyrS2-3Thi-BztA-Leu-NH2] | 743 |
| CC(=O)N1CCC[C@]12CC=CCCCC1(CCCC=CCCCOC(=O)N3CC[C@@](C(=O)N[C@@H](Cc4ccsc4)C(=O)N[C@@H](Cc4csc5ccccc45)C(=O)N[C@@H](CCC(N)=O)C(N)=O)(C3)NC(=O)[C@H](CCCNC(=N)N)NC(=O)[C@H](Cc3ccccc3)NC(=O)[C@H](C)NC(=O)[C@H](C)NC(=O)[C@H]([C@@H](C)O)NC(=O)[C@H](CC(N)=O)NC1=O)NC(=O)[C@H](CC(C)(C)C)NC(=O)[C@H](CC(=O)O)NC2=O (stereo partly drawn) [I-1883, Ac-PL3-Asp-Npg-B5-Asn-Thr-Ala-Ala-Phe-Arg-PyrS2-3Thi-BztA-Gln-NH2] | 884 |
| CC(=O)N1CCC[C@]12CC=CCCCC1(CCCC=CCCCOC(=O)N3CC[C@@](C(=O)N[C@@H](Cc4ccsc4)C(=O)N[C@@H](Cc4csc5ccccc45)C(=O)N[C@@H](CCC(N)=O)C(N)=O)(C3)NC(=O)[C@H](CC(N)=O)NC(=O)[C@H](Cc3ccccc3)NC(=O)[C@H](C)NC(=O)[C@H](C)NC(=O)[C@H](CCCNC(=N)N)NC(=O)[C@H](CC(N)=O)NC1=O)NC(=O)[C@H](CC(C)(C)C)NC(=O)[C@H](CC(=O)O)NC2=O (stereo partly drawn) [I-1892, Ac-PL3-Asp-Npg-B5-Asn-Arg-Ala-Ala-Phe-Asn-PyrS2-3Thi-BztA-Gln-NH2] | 1420 |
| CC(=O)N1CCC[C@]12CC=CCCCC1(CCCC=CCCCOC(=O)N3CC[C@@](C(=O)N[C@@H](Cc4ccccc4Cl)C(=O)N[C@@H](Cc4csc5ccccc45)C(=O)N[C@@H](CO)C(=O)N[C@@H](C)CO)(C3)NC(=O)[C@H](CC(C)C)NC(=O)[C@H](Cc3ccccc3)NC(=O)[C@H](C)NC(=O)[C@H](C)NC(=O)[C@H](Cc3cccc(C(=O)O)c3)NC(=O)[C@H](CC(=O)O)NC1=O)NC(=O)[C@H](CC(C)(C)C)NC(=O)[C@H](CC(=O)O)NC2=O (stereo partly drawn) [I-1907, Ac-PL3-Asp-Npg-B5-Asp-3COOHF-Ala-Ala-Phe-Leu-PyrS2-2C1F-BztA-Ser-Alao1] | 23 |
| CC(=O)N1CCC[C@]12CC=CCCCC1(CCCC=CCCCOC(=O)N3CC[C@@](C(=O)N[C@@H](Cc4ccsc4)C(=O)N[C@@H](Cc4csc5ccccc45)C(=O)N[C@@H](Cc4ccccc4)C(N)=O)(C3)NC(=O)[C@H](CC(C)C)NC(=O)[C@H](Cc3ccccc3)NC(=O)[C@H](C)NC(=O)[C@H](Cc3c[nH]cn3)NC(=O)[C@H](Cc3cccc(C(=O)O)c3)NC(=O)[C@H](CC(=O)O)NC1=O)NC(=O)[C@H](CC(C)(C)C)NC(=O)[C@H](CC(=O)O)NC2=O (stereo partly drawn) [I-1910, Ac-PL3-Asp-Npg-B5-Asp-3COOHF-His-Ala-Phe-Leu-PyrS2-3Thi-BztA-Phe-NH2] | 17 |
| CC(=O)N1CCC[C@]12CC=CCCCC1(CCCC=CCCCOC(=O)N3CC[C@@](C(=O)N[C@@H](Cc4ccsc4)C(=O)N[C@@H](Cc4csc5ccccc45)C(=O)N[C@@H](CCC(N)=O)C(N)=O)(C3)NC(=O)[C@H](CC(C)C)NC(=O)[C@H](Cc3ccccc3)NC(=O)[C@H](C)NC(=O)[C@H](C)NC(=O)[C@H](CN3CCC[C@H](C(=O)O)C3)NC(=O)[C@H](CC(=O)O)NC1=O)NC(=O)[C@H](CC(C)(C)C)NC(=O)[C@H](CC(=O)O)NC2=O (stereo partly drawn) [I-1921, Ac-PL3-Asp-Npg-B5-Asp-S3COOPipA-Ala-Ala-Phe-Leu-PyrS2-3Thi-BztA-Gln-NH2] | 22 |
